Data from US6747050B1, “Isoxazoline derivative and a process for the preparation thereof” (LG Chem Investment Ltd., priority 1999, dated 2004).

Tests used:
[1] = test system: IL-1β production in human peripheral lymphocytes; test: IL-1β production in LPS-stimulated human peripheral lymphocytes (intracellular Caspase-1 inhibition); type: cell-based; settings: Lymphocyte, 10 ng/ml LPS, 12 hours, read-out: CIC50 (IL-1β production)
Experimental: Inhibitory activity for Caspase-1 was determined by screening the effects of the compounds on the IL-1β production in the periphery lymphocytes stimulated with LPS. Briefly, 500,000 cells/ml of human peripheral lymphocytes were treated with the test compounds at various concentrations for 2 hours and then with 10 ng/ml of LPS. After incubating the cells for 12 hours, the supernatant samples from the media were analysed by immunoantibody analysis (Amersham) in which 100 ng/well of human IL-1β antibody is coated (Range: CIC50: 0.1˜10 μM).

[2] = test system: Con A-induced hepatitis in Balb/c mice; test: Con A-induced acute hepatitis mice: plasma aminotransferase activity; type: in vivo
Experimental: Female 6-week-old Balb/c mice (Charles River Laboratory, Osaka, Japan) were kept at 22° C. and 55% relative humidity in a 12-h day/night rhythm with free access to food and water. Con A was dissolved in pyrogen-free saline to a concentration of 2.5 mg/ml and was injected via the tail vein in an amount of 20 mg/kg based on Con A. The animals were i.p. injected twice with compound 33 dissolved into a vehicle which consists of olive oil and 10% DMSO, or a vehicle alone, at 1 hr before and 4 h after Con A injection Animals were sacrificed by cervical dislocation at 24 hrs after Con A injection to obtain liver and blood samples.
Blood samples obtained at step 1 were collected at 24 h after Con A injection Plasma AST and ALT activity were measured using Autokit (Youngdong Pharmaceutical Co., Seoul, Korea) following manufacturer's instruction.

[3] = test system: Recombinant human caspase-1, -2, -3, -4, -6, -7, -8 and -9; test: Inhibition of caspase activity in cell free system (chromogenic pNA substrates); type: biochemical; settings: 100 μM compound
Experimental: The pharmacological efficacy of the compound according to the present invention was evaluated by the following experiments. Con A was purchased from Boehringer Mannheim GmbH (Mannheim, Germany). Peptide-based substrates of caspases (Ac-YVAD-pNA for caspase-1, Ac-VDVAD for caspase-2, Ac-DEVD-pNA for caspase-3, 7, 8, and 9, Ac-LEVD-pNA for caspase-4, and Ac-VEID-pNA for caspase-6) and peptide-based caspase inhibitors (Ac-DEVD-fmk, z-VAD-CHO) were purchased from Alexis Co. (San Diego, Calif.). Ac-DEVD-CHO and z-DEVD-cmk were purchased from Bachem; Anti Fas antibody was purchased from Oncor (Cat#A8050); WI38 cell was available from ATCC; IFN-gamma was purchased from LG Pharmaceuticals (Korea). All cell culture-media and supplements were purchased from Gibco BRL (Tsuen Wan, Hong Kong) unless mentioned otherwise. […]
Caspase activity was tested by mewing proteolytic cleavage of peptide-based chromogenic substrate by each enzyme. […] Aliquots of the enzyme (2 μl containing catalytic activity of 0.2 absorbance at 405 nm/h) were mixed with 150 μl of 200 μM chromogenic substrate in the presence or absence of 100 μM compound 33 m, 96-well plates. […] The absorbance of enzymatically released pNA was measured discontinuously at 405 nm in a microplate reader for 1 hr. The caspase activity was calculated from initial velocity (meant±SE)(n=4, in which n represents the number of repeated experiment).

[4] = test system: hepatocytes in ConA-treated mouse liver; test: Con A-treated mouse liver: histologic examination and TUNEL detection of apoptosis; type: in vivo, mice; settings: 4, 20, 100 mg/kg
Experimental: The present inventors estimated the prevalence of apoptotic cells in the mouse liver to certify the apoptosis-blocking effect of the compound of the present invention specifically in hepatocytes. Mice were treated ConA in the presence or absence of various dosages of compound 33 [A and G: ConA and vehicle treatment, B and H: ConA and compound 33 4 mg/kg treatment, C and I: ConA and compound 33 20 mg/kg treatment, D and J: ConA and compound 33 100 mg/kg treatment] to prepare frozen liver sections. Also, mice were treated with PBS and vehicle (E and K), or PBS and compound 33 100 mg/kg (F and L) to prepare frozen liver sections. Freshly excised mouse liver was immediately immersed in 25% sucrose solution at 4° C. for overnight, then frozen in liquid nitrogen, and cryosectioned into 4 μm.
For histological examination, liver sections were fixed in 1% buffered paraformaldehyde and stained with hematoxilin & eosin (FIGS. 6A to F). To detect apoptotic cells in liver, frozen liver was stained using an ApopTag in situ apoptosis peroxidase detection kit (terminal deoxynucleotidyl transferase-mediated dUTP nick end labeling: TUNEL assay) (Oncor, Gaithersburg, Md.) and DAKO liquid DAB (DAKO, Carpinteria, Calif.)(FIGS. 6G to L). Staining was conducted according to manufacturer's instruction After completion of staining, the samples were observed under an optical microscope. […]

[5] = test system: PARP cleavage; test: Western blotting of PARP cleavage in liver lysate of Con A-treated mice; type: in vivo; settings: various doses
Experimental: In this experiment, the cleavage of PARP was identified by the appearance on Western blot analysis of an 85 kda-cleavage product in hepatic cell lysate obtained from mice treated with Con A and various doses of the compound of formula (I).
Freshly harvested livers treated with Con A or PBS together with various doses of compound 33 were rinsed in cold PBS and homogenized into three volumes per weight of cold PBS containing 1% Nonidet P-40, 0.1% SDS, 1 mM PMSF, and protease inhibitor cocktail tablet Complete (Boehnger Mannheim, used according to manufacturer's instruction). The homogenates were incubated on ice for 30 min. Samples were then centrifuged at 16,000×g for 30 min at 4° C. Supernatants were transferred to fresh tubes and centrifuged for additional 30 min. Harvested lysates were precleared by incubating with protein G-sepharose (Pharmacia, Uppsala, Sweden) at 4° C. for overnight, gently shaking. Supernatants were harvested by centrifugation at 1000×g for 30 sec. at 4° C. and separated on 7% SDS-polyacrylamide gel and transferred to nitrocellulose membrane. Blots were blocked for 1 hr at room temperature in PBS containing 5% skimmed milk and 0.1% Tween 20 under gentle shaking. Membranes were then incubated overnight with 1:1000 diluted monoclonal anti-PARP antibody (Pharmingen) under gentle shaking. […]

[6] = test system: caspase-3-like activity (Ac-DEVD-pNA); test: Caspase-3-like activity in TNFα/ActD-treated primary rat hepatocytes; type: cell-based; settings: 100 μM, 8 hrs
Experimental: (§1) Primary rat hepatocytes were isolated and purified from male Sprague-Dawley rats using a collagenase digestion method. The hepatocytes were purified over 30% Percoll gradient by centrifugation at 1,000×g for 10 min. at 4° C. […] The cells were plated on collagen-coated tissue culture plates at a density of 2×10^5 cells/well in 12-well plates for cell viability analysis or 5×10^6 cells/100 mm dish for enzyme assays. After 18 hrs preculture, the cells were treated with 2,000 units/ml TNFα and 0.2 μg/ml Actinomycin (ActD). Caspase activity and cell viability was determined by colorimetry using a caspase substrate Ac-DEVD-pNA and crystal violet staining method at 8 hrs and 12 hrs, respectively.

[7] = test system: primary rat hepatocytes; test: Cell viability of TNFα/ActD-treated primary rat hepatocytes (crystal violet); type: cell-based; settings: added at different time points
Experimental: as §1

`CC(C)[C@H](NC(=O)CCc1ccccc1)C1=NOC(Cc2ccccc2)(C(=O)N[C@@H](CC(=O)O)C(=O)COC(=O)c2c(Cl)cccc2Cl)C1` (mixture of isomers) [Compound 32] showed an IC50 [1] of 0.1 to 10 µM.
In the case of `CC(C)[C@H](NC(=O)c1cccc2ccccc12)C1=NOC(Cc2ccccc2)(C(=O)N[C@@H](CC(=O)O)C(=O)COC(=O)c2c(Cl)cccc2Cl)C1` (stereo partly drawn) [Compound 33, (3S)-3-{3-[2-Methyl-(1S)-1-(1-naphthalenecarbonylamino)-propyl]-5-phenylmethyl-4,5-dihydro-isoxazole-5-carbonylamino}-4-keto-5-(2,6-dichlorobenzoyloxy)-pentanoic Acid], the “AST and ALT difference to Con A/vehicle group” value ([2]; 4 mg/kg, second experiment (AST: p=0.2972, ALT: p=0.1378)) is reported as “did not reached at statistically significant level”, the “AST and ALT activities compared with ConA/vehicle group” value ([2]; 20 mg/kg, second experiment (AST: p=0.0174, ALT: p=0.0011)) is reported as “definitely reduced” and the “AST activity by the compound itself (no Con A)” value ([2]; first experiment, not statistically significant (p=0.1033)) is reported as “slightly increased”. For the same molecule, the “serum AST and ALT activity elevated by ConA (FIG. 4A, B)” value ([2]; i.p. twice, 1 hr before and 4 h after Con A, blood at 24 h) was “suppressed the elevated enzyme activities in a dose-dependent manner”, the “inhibition of recombinant human caspase activity (FIG. 1)” value [3] was “almost completely inhibited all tested caspase activity, only except for caspase 2” and the “apoptotic lesions in liver” value [4] was “reduced dose-dependently”. The “cellular histology of liver” value [4] was “gradually recovered” and the “PARP cleavage (85 kDa-cleavage product) caused by Con A (FIG. 7)” value [5] was “gradually reduced”.
For Z-VAD-fmk, the “caspase-3-like activity increased by TNFα/ActD (FIG. 15A)” value [6] was “not different” and the “cell viability with delayed addition, comparison with compound 33MP-Na” value [7] was “No different results”.
